In patent US8980249B2, “Agonists of growth hormone releasing hormone as effectors for survival and proliferation of pancreatic islets” (University of Miami, priority 2010, dated 2015):
“And” between values parts separate entries of the source, which are not always exact repeats. Identical values can stand only once. “Also recorded” adds a separate entry of the source. Square brackets hold non-standard residues; d marks the D form. Ends that are not written are not given here. * marks the point of attachment. Agmatine = N=C(N)NCCCCN*; Nle = CCCC[C@H](N)C(=O)O; Orn = NCCC[C@H](N)C(=O)O; Abu = CC[C@H](N)C(=O)O

Key:
isolated rat islets [1] = test: Immunostaining of islets for insulin and Ki-67; assay type: cell-based; conditions: 72 hrs in culture with JI-36
[2] = tested on: streptozotocin-induced diabetic NOD-SCID mice; test: Transplantation of pretreated rat islets beneath the kidney capsule of diabetic mice; assay type: in vivo
Description: NOD-SCID mice (MTZ breed) with induced diabetes were used as islet recipients following guidelines established by the University of Dresden Institutional Animal Care and Use Committee. Diabetes was induced by a single intraperitoneal injection of 180 mg/kg streptozotocin (Sigma-Aldrich, St. Louis, Mo.). Serum glucose was then measured daily using an Ascensia Elite glucometer (Bayer, Burr Ridge, Ill.). Mice were considered diabetic if non-fasting blood glucose (BG) was >350 mg/dL for two or more consecutive days. Rat islet preparations were used for transplantation. Islets from each preparation were divided into two groups, and JI-36 (10^−6 M) or vehicle (DMSO) was added to the culture media. Islets were cultured for 48 hrs prior to transplantation. After culture, samples of 300 IEQ were washed in transplant media (Ringer acetate with 5% glucose and 10% FBS), and transplanted to beneath the left kidney capsule. The animal experiments and housing were in accordance with institutional guidelines and German animal regulations.
The non-fasting blood glucose levels were measured daily during the first week and twice a week thereafter. On day 25, mice were subjected to an intraperitoneal glucose tolerance test (IPGTT). Two days later, grafts were removed. This led to a recurrence of the diabetic state. This proves that restoration and maintenance of normoglycemia was due to islet graft function.
On follow-up, sustained non-fasting blood glucose levels of ≦10 mM (≦180 mg/dl) were defined as “cure”, 10 to 18 mM (180 to 320 mg/dl) as “partial function” of transplanted islets, and levels above 18 mM (>320 mg/dl) as “graft failure”.

isolated rat islets [3] = test: Islet particle number and islet size (islet equivalents) in culture; assay type: cell-based; conditions: rat islets in culture with JI-36 10^−6 M
Description: Pancreatic islets were isolated from male Wistar rats according to guidelines established by the University of Dresden Institutional Animal Care and Use Committee. Animals were anesthetized by 3% isoflurane; digestion solution (Collagenase V, Sigma-Aldrich, St. Louis, Mo.) was injected in situ via the pancreatic common bile duct. Islets were purified by centrifugation on a discontinuous Ficoll gradient (Mediatech). Purified islets were maintained in culture media (CMRL 1066, Mediatech, USA) supplemented with 10% FBS at 37° C. in a 5% CO2 incubator. Volume and purity were determined by microscopic sizing after staining with dithizone (Sigma-Aldrich, St. Louis, Mo.).
Triplicate samples of 100 to 300 islet particles were stained with dithizone (Sigma-Aldrich, St. Louis, Mo.), which binds zinc ions present specifically in islet β-cells, and sized using an eyepiece reticle and inverted microscope (32). The term islet particle describes an individual islet independent of its size. All islet particles with a diameter >50 μm were divided into classes of 50 μm increments (i.e., 50-100, 100-150, 150-200, etc.) for calculation of islet equivalents (IEQ). Each diameter class was converted into the mean volume of 150-μm diameter islets by a relative conversion factor. These factors allow converting the total islet particle number from any preparation into IEQ. […]

rat islets [4] = test: Static glucose-stimulated insulin secretion; assay type: cell-based
Description: For static insulin secretion in response to glucose challenge, islets were transferred into Petri dishes containing oxygenated Krebs-Ringer bicarbonate buffer (KRB, 137 mM NaCl, 4.7 mM KCl, 1.2 mM KH2PO4, 1.2 mM MgSO4-7H2O, 2.5 mM CaCl2-2H2O, 25 mM NaHCO3, 0.25% BSA) and pre-incubated in 3.3 mM glucose at 37° C. (5% CO2) for 30 min. Groups of 8-10 islets from the equilibration cultures were transferred to fresh oxygen-saturated media containing either 3.3 or 16.7 mM glucose and then incubated an additional 60 min in a 37° C. water bath with gentle shaking. Secreted insulin in the media was measured by ELISA (Millipore, Billerica, Mass.) and values normalized to extracted islet DNA (Quant-iT™ Picogreen, Invitrogen).

INS-1 cells [5] = test: Cell proliferation of INS-1 insulinoma cells; assay type: cell-based, rat
Description: (§1) Rat insulinoma cells (INS-1) were cultured in RPMI 1640 medium (PAA, Pasching, Austria) supplemented with 2 mM L-glutamine, 10% fetal bovine serum (FBS), 1 mM Na-pyruvate, 50 μM 2-mercaptoethanol and 100 U/ml penicillin-streptomycin (Gibco, Gaithersburg Md.) in a humidified 5% CO2/[…] atmosphere at 37° C. The culture medium was changed every other day. Cells were grown for 72 hrs prior to experimentation. GHRH agonist JI-36 (10^−6-10^−9 M) and GHRH antagonist MIA-602 ([…]) were used for 24-96 hrs, respectively.
(§2) INS-1 cells were grown for 72 hrs prior to experimentation; islets were collected immediately after the isolation procedure and each were divided into three treatment groups: (1) Culture media with vehicle (DMSO) served as control group, (2) Culture media containing GHRH agonist JI-36 (10^−6 M), (3) culture media with JI-36 plus GHRH antagonist MIA-602 (10^−6 M). Media change and addition of the analogues was performed after 24 hrs and 48 hrs in islet cultures and every other day in INS-1 cell cultures.

INS-1 cells [6] = test: Ultrastructural analysis of INS-1 cells; assay type: cell-based, rat; conditions: JI-36 10^−6 M
Description: as §2

rat islets [7] = test: Islet membrane integrity, FDA/PI viability staining; assay type: cell-based; conditions: 72 hrs in culture, n=4
Description: Small aliquots of islets were transferred in phosphate-buffered saline (PBS) containing Petri dishes. Fluorescein diacetate (FDA) and propidium iodide (PI) were added to the samples at a final concentration of 0.5 and 75 μM, respectively. Using a fluorescence microscope, 100 islets were assessed for cell viability by estimating the percentage of viable cells (green) versus percentage of non-viable cells (red) within each islet. The percentage of viable cells was then calculated (33).

[8] = tested on: streptozotocin-induced diabetic NOD-SCID mice; test: Intraperitoneal glucose tolerance test after islet transplantation; assay type: in vivo
Description: Mice were fasted overnight (at least 6 hrs) before examination. A glucose solution was given at 3 g/kg BW i.p. and blood glucose was recorded before injection and 15, 30, 45, 60, 90 and 120 min following glucose injection. Non-transplanted mice were used as controls and tested concurrently.

INS-1 cells [9] = test: Cell apoptosis of INS-1 cells (activity of caspases 3 and 7); assay type: cell-based, rat
Description: as §1, §2

cardiomyocytes = conditions: in vitro; cited from earlier work
rat hearts = conditions: cited from earlier work
[10] = tested on: myocardial infarction (MI); conditions: in vivo; cited from earlier work

(Dat^1, Thr^8, Orn^12,21, Abu^15, Nle^27, Asp^28, Agm^29)hGH-RH(1-29) ([Dat]ADAIFTTSYR[Orn]VL[Abu]QLSAR[Orn]LLQDI[Nle]D[Agmatine]) [JI-36, synthetic GHRH agonist]
insulin and Ki-67 staining (proliferation in beta cells) (isolated rat islets [1]): co-localization of the two markers
animals cured (stable normoglycemia) ([2]; 300 IEQ islets pretreated with JI-36 10^−6 M 48 hrs, day 25): 5 of 6 and 5 out of 6
graft integration (insulin immunostaining) ([2]; day 27 after transplantation): stable graft integration
blood glucose control after transplantation versus untreated islets (in words) ([2]; islets pretreated with JI-36): consistently performed better; also recorded: rapid and persistent recovery from diabetes; also recorded: earlier and more consistently
animals with partial graft function ([2]; islets pretreated with JI-36, day 25): one
islet equivalents (IEQ/IP ratio, islet size) versus control (isolated rat islets [3]; 24-72 hrs): increased islet size
number of islet particles over time versus control (isolated rat islets [3]; up to 72 hrs): no relevant change; also recorded: no difference between treatment group and control
insulin release at basal glucose versus control (in words) (rat islets [4]; 3.3 mM glucose): slight increase; also recorded: did not cause a relevant difference
insulin release at basal glucose (rat islets [4]; 3.3 mM glucose, 1 hr, after 48 hrs exposure, n=5): 2.3 ± 0.5 ng/mL
insulin release upon glucose stimulation compared to control (in words) (rat islets [4]; 16.7 mM glucose): more than double; also recorded: increased
insulin release at high glucose (rat islets [4]; 16.7 mM glucose, after 48 hrs exposure, n=5): 8.2 ± 0.2 ng/mL
insulin release at high glucose relative to basal glucose (rat islets [4]; 16.7 mM vs 3.3 mM glucose): 3.6 fold
cell proliferation rates (in words) (INS-1 cells [5]; 10^−6-10^−9 M, 24-96 hrs): significant and dose-dependent increase
increase in cell proliferation compared to control (INS-1 cells [5]; JI-36 10^−6 M, 72 hrs): 50%
most effective concentration for cell proliferation (INS-1 cells [5]; tested 10^−6-10^−9 M): 10^−6 M
ultrastructural changes / metabolic state (INS-1 cells [6]): more active metabolic state; also recorded: metabolic active stimulation state with increased cytoplasm
islet viability (rat islets [7]): 96±3.3%
time to revert initial hyperglycemia to normal ranges in IPGTT ([8]; day 25): ≤ 2 h
response in IPGTT ([8]; day 25, glucose 3 g/kg i.p.): comparable to that of normal healthy mice
degree of cell apoptosis (in words) (INS-1 cells [9]; 10^−6-10^−9 M, 24-96 hrs, INS-1 cells): significant decrease; also recorded: reduction
reduction of apoptosis (activity of caspases 3 and 7) (INS-1 cells [9]; JI-36 10^−6 M, 72 hrs, INS-1 cells): 20%
time of maximal anti-apoptotic effect (INS-1 cells [9]; incubation 24-96 hrs): 72 h
most effective concentration for anti-apoptotic effect (INS-1 cells [9]; tested 10^−6-10^−9 M, INS-1 cells): 10^−6 M

rat GHRH: rat growth hormone-releasing hormone, cited cardioprotection study (HADAIFTSSYRRILGQLYARKLLHEIMNRQQGERNQEQRSRFN; Somatoliberin; UniProt P09916 31-73, looked up)
survival of cardiomyocytes (cardiomyocytes): promoted survival
protection from ischemia-reperfusion injury (rat hearts): protected

(Dat^1, Gln^8, Orn^12,21, Abu^15, Nle^27, Asp^28, Agm^29)hGH-RH(1-29) [JI-38]
cardiac effect following myocardial infarction [10]: favorable cardiac effect, attenuating infarct size
